Assay results: patent publication US8119630B2 (Arrow Therapeutics Limited, priority 2002, dated 2012)

How the values were obtained:
RSV = test: XTT assay, RSV-infected Hep-2 cells; assay type: cell-based, Respiratory Syncytial Virus (RSV); conditions: Table 2, Examples 75 to 82 and 125 to 184, Hep-2 cells infected with RSV, 6 days at 37° C.
Description: Examples 75 to 82 and 125 to 184 were tested according to the protocol described below.
(§1) The inner 60 wells of 96 well tissue culture plates were seeded with Hep-2 cells at 4×10^4 cells/well for compound activity and toxicity studies in 100 μl of medium and incubated at 37° C. overnight or until nearing confluency.
(§2) Cells were infected with 25 μl RSV previously titrated to give 80% cell kill. To each well 25 μM of test compound were added. The final DMSO concentration was 0.5%. Some 200 μl of sterile distilled water were added to the outer wells of the plate and incubated at 37° C. for 6 days. Some 0.25 μl/ml PMS were added to stock […] solution, final conc. 25 μM PMS. Then 25 μl warmed XTT/PMS solution were added to each well and incubated for 1 hour at 37° C.
Maximum OD450nm reading (uninfected, untreated control cells) corresponded to 100% inhibition. Minimum OD450nm readings (infected control cells) corresponded to 0% inhibition. Log 10 concentration was plotted against OD450nm and IC50 values were calculated from either reading 50% value from graph or using regression analysis.

Hep-2 cells = test: Toxicity studies (XTT), Hep-2 cells; assay type: cell-based; design: TC50 (6d): unit not given beside the values; conditions: for TC50 (6d): Table 2, Examples 75 to 82 and 125 to 184, 6d; for TC50 (2d): Table 2, Examples 75 to 82 and 125 to 184, 2d
Description: as §1
as §2, with “Some 200 μl of sterile distilled water were added to the outer wells of the plate and incubated at 37° C. for 6 days.” left out

[1] = human respiratory syncytial virus, 144 h

| Compound | IC50 (RSV; [1]) | TC50 (6d) (Hep-2 cells; in µM) | TC50 (2d) (Hep-2 cells) | IC50 (RSV) | TC50 (6d) (Hep-2 cells) |
| --- | --- | --- | --- | --- | --- |
| O=C(NC1N=C(c2ccccc2)c2ccccc2NC1=O)c1cccc2cc[nH]c12 (stereo not drawn) [Example 81a, 1H-Indole-7-carboxylic acid (2-oxo-5-phenyl-2,3-dihydro-1H-benzo[e][1,4]diazepin-3-yl)-amide] | 8.4 µM | 63 | – | – | – |
| CC(C)(C)OC(=O)NC1N=C(c2ccccc2)c2ccccc2NC1=O (stereo not drawn) [Example 178, (2-Oxo-5-phenyl-2,3-dihydro-1H-benzo[e][1,4]diazepin-3-yl)carbamic acid tert-butyl ester] | 4.3 µM | >50 | – | – | – |
| CCCCNC(=O)NC1N=C(c2ccccc2)c2ccccc2NC1=O (stereo not drawn) [Example 151, 1-Butyl-3-(2-oxo-5-phenyl-2,3-dihydro-1H-benzo[e][1,4]diazepin-3-yl)-urea] | 1.5 µM | >100 | > 100 µM | – | – |
| COc1cc([N+](=O)[O-])ccc1C(=O)N(C)C1N=C(c2ccccc2)c2ccccc2NC1=O (stereo not drawn) [Example 147, 2-Methoxy-N-methyl-4-nitro-N-(2-oxo-5-phenyl-2,3-dihydro-1H-benzo[e][1,4]diazepin-3-yl)-benzamide] | 15.9 µM | – | > 50 µM | – | – |
| Thiophene-2-carboxylic acid [5-(3-methoxy-phenyl)-2-oxo-5-phenyl-2,3-dihydro-1H-benzo[e][1,4]diazepin-3-yl]-amide [Example 164] | – | 100 | 100 µM | 4 µM | – |
| O=C(NC1N=C(c2ccccc2)c2ccccc2NC1=O)c1cc(F)c(F)cc1F (stereo not drawn) [Example 79a, 2,4,5-Trifluoro-N-(2-oxo-5-phenyl-2,3-dihydro-1H-benzo[e][1,4]diazopin-3-yl)-benzamide] | – | 65 | – | 8 µM | – |
| O=C(NC1N=C(c2ccccc2)c2ccccc2NC1=O)c1ccccn1 (stereo not drawn) [Example 172, Pyridine-2-carboxylic-acid (2-oxo-5-phenyl-2,3-dihydro-1H-benzo[e][1,4]diazepin-3-yl)-amide] | 6.4 µM | 137.8 | – | – | – |
| COc1cc2ccccc2cc1C(=O)NC1N=C(c2ccccc2)c2ccccc2NC1=O (stereo not drawn) [Example 82a, 3-Methoxy-naphthalene-2-carboxylic acid (2-oxo-5-phenyl-2,3-dihydro-1H-benzo[e][1,4]diazepin-3-yl)-amide] | 6.7 µM | >50 | – | – | – |
| O=C(N[C@H]1N=C(c2ccccc2)c2ccccc2NC1=O)c1cc2ccccc2o1 [Example 180, (S)-Benzofuran-2-carboxylic acid (2-oxo-5-phenyl-2,3-dihydro-1H-benzo[e][1,4]diazepin-3-yl)-amide] | 2.6 µM | 37.1 | – | – | – |
| O=C(N[C@H]1N=C(c2ccccc2)c2ccccc2NC1=O)c1ccccc1O [Example 80b, (S)-2-Hydroxy-N-(2-oxo-5-phenyl-2,3-dihydro-1H-benzo[e][1,4]diazepin-3-yl)-benzamide] | 2 µM | >50 | – | – | – |
| CS(=O)(=O)c1ccc(C(=O)NC2N=C(c3ccccc3)c3ccccc3NC2=O)cc1 (stereo not drawn) [Example 133, 4-Methanesulfonyl-N-(2-oxo-5-phenyl-2,3-dihydro-1H-benzo[e][1,4]diazepin-3-yl)-benzamide] | 6.2 µM | 77.2 | – | – | – |
| O=C(NC1N=C(c2ccccc2)c2ccccc2NC1=O)c1cnccn1 (stereo not drawn) [Example 162] | – | >100 | > 100 µM | 2 µM | – |
| COc1cc(N)c(Cl)cc1C(=O)NC1N=C(c2ccccc2)c2ccccc2NC1=O (stereo not drawn) [Example 140, 4-Amino-5-chloro-2-methoxy-N-(2-oxo-5-phenyl-2,3-dihydro-1H-benzo[e][1,4]diazepin-3-yl)-benzamide] | 2.5 µM | 68 | – | – | – |
| N-[5-(3-Chloro-phenyl)-2-oxo-5-phenyl-2,3-dihydro-1H-benzo[e][1,4]diazepin-3-yl]-isobutyramide [Example 155] | – | >100 | > 100 µM | 6 µM | – |
| COc1cccc(C2=NC(NC(=O)C(C)C)C(=O)Nc3ccccc32)c1 (stereo not drawn) [Example 163] | – | – | >100 | 5 µM | >100 |
| O=C(N[C@H]1N=C(c2ccccc2)c2ccccc2NC1=O)c1cc(Br)c(Br)o1 [Example 179, (S)-4,5-Dibromo-furan-2-carboxylic acid (2-oxo-5-phenyl-2,3-dihydro-1H-benzo[e][1,4]diazepin-3-yl)-amide] | 3.9 µM | >50 | – | – | – |

| Compound | IC50 (RSV; [1]) | TC50 (6d) (Hep-2 cells; in µM) | TC50 (2d) (Hep-2 cells) | IC50 (RSV) | TC50 (6d) (Hep-2 cells) |
| --- | --- | --- | --- | --- | --- |
| N-[5-(3-Chloro-phenyl)-2-oxo-5-phenyl-2,3-dihydro-1H-benzo[e][1,4]diazepin-3-yl]isonicotinamide [Example 160] | – | >100 | > 100 µM | 10 µM | – |
| O=C(Nc1cccs1)NC1N=C(c2ccccc2)c2ccccc2NC1=O (stereo not drawn) [Example 170, 1-(2-Oxo-5-phenyl-2,3-dihydro-1H-benzo[e][1,4]diazepin-3-yl)-3-thiophene-2-yl-urea] | 3.4 µM | >50 | – | – | – |
| O=C(Nc1cccc(Cl)c1)NC1N=C(c2ccccc2)c2ccccc2NC1=O (stereo not drawn) [Example 131] | – | >50 | – | 9.6 µM | – |
| COC(=O)NC1N=C(c2ccccc2)c2ccccc2NC1=O (stereo not drawn) [Example 181, (2-Oxo-5-phenyl-2,3-dihydro-1H-benzo[e][1,4]diazepin-3-yl)-carbamic acid methyl ester] | 9.6 µM | >50 | – | – | – |
| Thiophene-2-carboxylic acid [5-(3-chloro-phenyl)-2-oxo-5-phenyl-2,3-dihydro-1H-benzo[e][1,4]diazepin-3-yl]-amide [Example 157] | – | 100 | > 100 µM | 5 µM | – |
| O=C(NC1N=C(c2ccccc2)c2ccccc2NC1=O)c1c(F)cccc1F (stereo not drawn) [Example 136, 2,6-Difluoro-N (2-oxo-5-phenyl-2,3-dihydro-1H-benzo[e][1,4]diazepin-3-yl)-benzamide] | – | >50 | – | 8.7 µM | – |
| N-[5-(3-Chloro-phenyl)-2-oxo-5-phenyl-2,3-dihydro-1H-benzo[e][1,4]diazepin-3-yl)acetamide [Example 154] | – | >100 | > 100 µM | 3 µM | – |
| Furan-2-carboxylic acid [5-(3-chloro-phenyl)-2-oxo-5-phenyl-2,3-dihydro-1H-benzo[e][1,4]diazepin-3-yl]-amide [Example 156] | – | 100 | 100 µM | 1.5 µM | – |
| Piperidine-1-carboxylic acid [5-(3-chloro-phenyl)-2-oxo-5-phenyl-2,3-dihydro-1H-benzo[e][1,4]diazepin-3-yl]-amide [Example 159] | – | >100 | > 100 µM | 2 µM | – |
| O=C(CC(O)c1ccccc1)NC1N=C(c2ccccc2)c2ccccc2NC1=O (stereo not drawn) [Example 145, 3-Hydroxy-N-(2-oxo-5-phenyl-2,3-dihydro-1H-benzo[e][1,4]diazepin-3-yl)-3-phenyl-propionamide] | 1.9 µM | – | > 50 µM | – | – |
| O=C(N[C@H]1N=C(c2ccccc2)c2ccccc2NC1=O)c1cc(F)c(F)cc1F [Example 79b, (S)-2,4,5-Trifluoro-N-(2-oxo-5-phenyl-2,3-dihydro-1H-benzo[e][1,4]diazepin-3-yl)-benzamide] | 5.8 µM | >50 | – | – | – |
| O=C1Nc2ccc(Cl)cc2C(c2ccccc2)=NC1NC(=O)N1CCCCC1 (stereo not drawn) [Example 153, Piperidine-1-carboxylic acid (7-chloro-2-oxo-5-phenyl-2,3-dihydro-1H-benzo[p][1,4]diazepin-3-yl)-amide] | – | >100 | > 100 µM | 5 µM | – |
| COc1cccc(NC(=O)NC2N=C(c3ccccc3)c3ccccc3NC2=O)c1 (stereo not drawn) [Example 129, 1-(3-Methoxy-phenyl)-3-(2-oxo-5-phenyl-2,3-dihydro-1H-benzo[e][1,4]diazepin-3-yl)-urea] | 4.9 µM | >50 | – | – | – |
| CCOc1ccc2ccccc2c1C(=O)NC1N=C(c2ccccc2)c2ccccc2NC1=O (stereo not drawn) [Example 175, 2-Ethoxy-naphthalene-1-carboxylic acid (2-oxo-5-phenyl-2,3-dihydro-1H-benzo[e][1,4]diazepin-3-yl)-amide] | 8.2 µM | >50 | – | – | – |
| CCOc1ccc(C(C)=O)cc1C(=O)N[C@H]1N=C(c2ccccc2)c2ccccc2NC1=O [Example 76b, (S)-5-Acetyl-2-ethoxy-N-(2-oxo-5-phenyl-2,3-dihydro-1H-benzo[e][1,4]diazepin-3-yl)-benzamide] | 1.2 µM | >50 | – | – | – |
| O=C(NC1N=C(c2ccccc2)c2ccccc2NC1=O)c1ccccc1F (stereo not drawn) [Example 135, 2-Fluoro-N-(2-oxo-5-phenyl-2,3-dihydro-1H-benzo[e][1,4]diazepin-3-yl)-benzamide] | 9.5 µM | >50 | – | – | – |
